The values that follow come from US8101550B2, “Anthranilic acid diamide derivative with hetero-aromatic and hetero-cyclic substituents” (Bayer Cropscience AG, priority 2006, dated 2012).

A short description of the first series: log P determination by HPLC on reverse-phase column (EEC Directive 79/831 Annex V.A8). In kind it is physicochemical. The note with it: HPLC on reverse-phase column. Here is the method: The log P values stated in the foregoing tables and preparation examples are determined in accordance with EEC Directive 79/831 Annex V.A8 by means of HPLC (High Performance Liquid Chromatography) on a reverse-phase column (C 18). Temperature: 43° C.
The determination by LC-MS in the acidic range takes place at a pH of 2.7 using 0.1% aqueous formic acid and acetonitrile (containing 0.1% formic acid) as eluents; linear gradient from 10% acetonitrile to 95% acetonitrile.
Calibration is with unbranched alkan-2-ones (having 3 to 16 carbon atoms) of known log P value (log P values determined from the retention times by linear interpolation between two successive alkanones).
`CNC(=O)c1cc(Cl)cc(C)c1NC(=O)c1cc(Cn2nnn(-c3ccc(Cl)cc3)c2=O)nn1-c1ncccc1Cl` [I-1-38] displayed a logP of 3.28.

As to `CNC(=O)c1cc(Cl)cc(C)c1NC(=O)c1cc(Cn2nc(C(F)(F)F)nc2C(F)(F)F)nn1-c1c(Cl)cccc1Cl` [I-1-41], the logP was found to be 4.13.

`CNC(=O)c1cc(Cl)cc(C)c1NC(=O)c1cc(Cn2cc(C(F)(F)F)cn2)nn1-c1ncccc1Cl` [I-1-42] yielded a logP of 2.76.

In turn, `Cc1cc(Cl)cc(C(=O)NC(C)C)c1NC(=O)c1cc(Cn2cc(C(F)(F)F)cn2)nn1-c1ncccc1Cl` [I-1-43] yielded a logP of 3.20.

The compound `CNC(=O)c1cc(Cl)cc(C)c1NC(=O)c1cc(Cn2ccc(C(F)(F)F)n2)nn1-c1ncccc1Cl` [I-1-44] showed a logP of 2.92.

As to `CNC(=O)c1cc(Cl)cc(C)c1NC(=O)c1cc(Cn2cc(I)cn2)nn1-c1ncccc1Cl` [I-1-45], the logP is on record as 2.67.

Turning to `Cc1cc(Cl)cc(C(=O)NC2CC2)c1NC(=O)c1cc(Cn2cc(C(F)(F)C(F)(F)F)c(C(F)(F)C(F)(F)F)n2)nn1-c1ncccc1Cl` [I-1-46], the logP was 4.58.

Regarding `Cc1cc(Cl)cc(C(=O)NCC#N)c1NC(=O)c1cc(Cn2cc(C(F)(F)C(F)(F)F)c(C(F)(F)C(F)(F)F)n2)nn1-c1ncccc1Cl` [I-1-47], the logP turned out to be 4.31.

In turn, `Cc1cc(Cl)cc(C(N)=O)c1NC(=O)c1cc(Cn2cc(C(F)(F)C(F)(F)F)c(C(F)(F)C(F)(F)F)n2)nn1-c1ncccc1Cl` [I-1-48] gave a logP of 4.15. This logP and that of the compound before are within 0.2 log units of each other.

Turning to `Cc1cc(Cl)cc(C(=O)NCC#N)c1NC(=O)c1cc(Cn2nc(C(F)(F)F)nc2C(F)(F)F)nn1-c1ncccc1Cl` [I-1-49], the logP came out at 3.97.

In the case of `Cc1cc(Cl)cc(C(N)=O)c1NC(=O)c1cc(Cn2nc(C(F)(F)F)nc2C(F)(F)F)nn1-c1ncccc1Cl` [I-1-50], the logP turned out to be 3.88. The logP values of the last two compounds are within 0.2 log units of each other.

As to `Cc1cc(Cl)cc(C(=O)NC(C)C)c1NC(=O)c1cc(Cn2nnn(-c3c(C)cccc3Cl)c2=O)nn1-c1ncccc1Cl` [I-1-51], the logP is on record as 3.52.

Consider `Cc1cc(Br)cc(C(=O)NC2CC2)c1NC(=O)c1cc(Cn2cc(C(F)(F)C(F)(F)F)c(C(F)(F)C(F)(F)F)n2)nn1-c1ncccc1Cl` [I-1-52], for which the logP is 4.59.

`Cc1cc(Br)cc(C(N)=O)c1NC(=O)c1cc(Cn2cc(C(F)(F)C(F)(F)F)c(C(F)(F)C(F)(F)F)n2)nn1-c1ncccc1Cl` [I-1-53] showed a logP of 4.17.

Regarding `Cc1cc(Cl)cc(C(=O)NC2CC2)c1NC(=O)c1cc(Cn2nc(C(F)(F)F)nc2C(F)(F)F)nn1-c1ncccc1Cl` [I-1-54], the logP is reported as 3.61.

Take `Cc1cc(Cl)cc(C(=O)NCC#N)c1NC(=O)c1cc(Cn2nc(C(F)(F)F)nc2C(F)(F)F)nn1-c1ncccc1Cl` [I-1-55]: the logP is 3.40.

In the case of `Cc1cc(Br)cc(C(=O)NCC#N)c1NC(=O)c1cc(Cn2nc(C(F)(F)F)nc2C(F)(F)F)nn1-c1ncccc1Cl` [I-1-56], the logP is 3.44.

The compound `Cc1cc(Br)cc(C(=O)NC2CC2)c1NC(=O)c1cc(Cn2nc(C(F)(F)F)nc2C(F)(F)F)nn1-c1ncccc1Cl` [I-1-57] had a logP of 3.67.

Take `CNC(=O)c1cc(Br)cc(C)c1NC(=O)c1cc(Cn2nc(C(F)(F)F)cc2C(F)(F)F)nn1-c1ncccc1Cl` [I-1-58]: the logP amounted to 3.76.

In turn, `Cc1cc(Br)cc(C(=O)NCC#N)c1NC(=O)c1cc(Cn2nc(C(F)(F)F)cc2C(F)(F)F)nn1-c1ncccc1Cl` [I-1-59] displayed a logP of 3.65.

The compound `Cc1cc(Br)cc(C(=O)NC2CC2)c1NC(=O)c1cc(Cn2nc(C(F)(F)F)cc2C(F)(F)F)nn1-c1ncccc1Cl` [I-1-60] yielded a logP of 3.91.

The compound `Cc1cc(Br)cc(C(N)=O)c1NC(=O)c1cc(Cn2nc(C(F)(F)F)cc2C(F)(F)F)nn1-c1ncccc1Cl` [I-1-61] had a logP of 3.53.

In turn, `CNC(=O)c1cc(Cl)cc(C)c1NC(=O)c1cc(Cn2cc(I)c(C(F)(F)F)n2)nn1-c1ncccc1Cl` [I-1-62] had a logP of 3.41. The logP values of the last two compounds are within 0.2 log units of each other.

Consider `Cc1cc(Cl)cc(C(=O)NC(C)C)c1NC(=O)c1cc(Cn2cc(I)c(C(F)(F)F)n2)nn1-c1ncccc1Cl` [I-1-63], for which the logP is 3.85.

Take `CNC(=O)c1cc(Cl)cc(C)c1NC(=O)c1cc(Cn2cc(C(F)(F)C(F)(F)F)cn2)nn1-c1ncccc1Cl` [I-1-64]: the logP is recorded as 3.21.

For the compound `Cc1cc(Cl)cc(C(=O)NC(C)C)c1NC(=O)c1cc(Cn2cc(C(F)(F)C(F)(F)F)cn2)nn1-c1ncccc1Cl` [I-1-65], the logP is 3.67.

`CNC(=O)c1cc(Cl)cc(C)c1NC(=O)c1cc(Cn2cc(Br)c(C(F)(F)F)n2)nn1-c1ncccc1Cl` [I-1-66] gave a logP of 3.38.

Compound `Cc1cc(Cl)cc(C(=O)NC(C)C)c1NC(=O)c1cc(Cn2cc(Br)c(C(F)(F)F)n2)nn1-c1ncccc1Cl` [I-1-67] displayed a logP of 3.78.

In the case of `CNC(=O)c1cc(Br)cc(C)c1NC(=O)c1cc(Cn2cc(Br)c(C(F)(F)F)n2)nn1-c1ncccc1Cl` [I-1-68], the logP was 3.46.

In the case of `Cc1cc(Br)cc(C(=O)NC(C)C)c1NC(=O)c1cc(Cn2cc(Br)c(C(F)(F)F)n2)nn1-c1ncccc1Cl` [I-1-69], the logP is given as 3.92.

The compound `CNC(=O)c1cc(Br)cc(C)c1NC(=O)c1cc(Cn2cc(Cl)c(C(F)(F)C(F)(F)F)n2)nn1-c1ncccc1Cl` [I-1-70] showed a logP of 3.94.

The compound `Cc1cc(Br)cc(C(=O)NC(C)C)c1NC(=O)c1cc(Cn2cc(Cl)c(C(F)(F)C(F)(F)F)n2)nn1-c1ncccc1Cl` [I-1-71] came in with a logP of 4.40.

Regarding `Cc1cc(Br)cc(C(=O)NC2CC2)c1NC(=O)c1cc(Cn2cc(Cl)c(C(F)(F)C(F)(F)F)n2)nn1-c1ncccc1Cl` [I-1-72], the logP came out at 4.14.

`Cc1cc(Br)cc(C(=O)NCC#N)c1NC(=O)c1cc(Cn2cc(Cl)c(C(F)(F)C(F)(F)F)n2)nn1-c1ncccc1Cl` [I-1-73] gave a logP of 3.87.

In turn, `Cc1cc(Br)cc(C(N)=O)c1NC(=O)c1cc(Cn2cc(Cl)c(C(F)(F)C(F)(F)F)n2)nn1-c1ncccc1Cl` [I-1-74] gave a logP of 3.68.

The compound `CSC[C@H](C)NC(=O)c1cc(Cl)cc(C)c1NC(=O)c1cc(Cn2nc(C(F)(F)F)nc2C(F)(F)F)nn1-c1ncccc1Cl` [I-1-75] yielded a logP of 4.04.

`CCNC(=O)OC[C@H](C)NC(=O)c1cc(Cl)cc(C)c1NC(=O)c1cc(Cn2nc(C(F)(F)F)nc2C(F)(F)F)nn1-c1ncccc1Cl` [I-1-77] showed a logP of 3.58.

In turn, `CNC(=O)OC[C@H](C)NC(=O)c1cc(Cl)cc(C)c1NC(=O)c1cc(Cn2nc(C(F)(F)F)nc2C(F)(F)F)nn1-c1ncccc1Cl` [I-1-78] yielded a logP of 3.36.

In turn, `Cc1cc(Cl)cc(C(=O)NCC#N)c1NC(=O)c1cc(Cn2nc(C(F)(F)F)nc2C(F)(F)F)nn1-c1ncccc1Cl` [I-1-79] displayed a logP of 3.62.

In the case of `CNC(=O)c1cc(Br)cc(C)c1NC(=O)c1cc(Cn2ccc(C(F)(F)F)n2)nn1-c1ncccc1Cl` [I-1-80], the logP came out at 2.99.

For `Cc1cc(Br)cc(C(=O)NC(C)C)c1NC(=O)c1cc(Cn2ccc(C(F)(F)F)n2)nn1-c1ncccc1Cl` [I-1-81], the logP was found to be 3.46.

In turn, `Cc1cc(Br)cc(C(=O)NC2CC2)c1NC(=O)c1cc(Cn2ccc(C(F)(F)F)n2)nn1-c1ncccc1Cl` [I-1-82] returned a logP of 3.18.

Take `Cc1cc(Br)cc(C(N)=O)c1NC(=O)c1cc(Cn2ccc(C(F)(F)F)n2)nn1-c1ncccc1Cl` [I-1-83]: the logP stood at 2.75.

In the case of `CSC[C@H](C)NC(=O)c1cccc(C)c1NC(=O)c1cc(Cn2nc(C(F)(F)F)nc2C(F)(F)F)nn1-c1ncccc1Cl` [I-1-84], the logP stood at 3.62.

Consider `Cc1cc(Br)cc(C(=O)NCC#N)c1NC(=O)c1cc(Cn2ccc(C(F)(F)F)n2)nn1-c1ncccc1Cl` [I-1-85], for which the logP amounted to 2.98.

Regarding `CNC(=O)c1cc(Cl)cc(C)c1NC(=O)c1cc(Cn2nc(C(F)(F)C(F)(F)F)nc2C(F)(F)F)nn1-c1ncccc1Cl` [I-1-86], the logP came out at 3.78.

For `Cc1cccc(C(=O)N[C@@H](C)CS(C)(=O)=O)c1NC(=O)c1cc(Cn2nc(C(F)(F)F)nc2C(F)(F)F)nn1-c1ncccc1Cl` [I-1-87], the logP was found to be 2.92.

Still in this series, the particulars now being: reverse-phase C18 HPLC column; HPLC, reverse-phase column (C 18), 43° C., acidic range pH 2.7; read-out: logP.
As for `Cc1cc(Cl)cc2c(=O)oc(-c3cc(Cn4nc(C(F)(F)F)cc4C(F)(F)F)nn3-c3ncccc3Cl)nc12` [Example 2, 2-[5-(3,5-Bistrifluoromethylpyrazol-1-ylmethyl)-2-(3-chloropyridin-2-yl)-2H-pyrazol-3-yl]-6-chloro-8-methylbenzo[d][1,3]oxazin-4-one], the chromatographic logP was determined as 5.11.

For the compound `O=C(O)c1cc(Cn2nc(C(F)(F)F)cc2C(F)(F)F)nn1-c1ncccc1Cl` [Example 3, 5-(3,5-Bistrifluoromethylpyrazol-1-ylmethyl)-2-(3-chloropyridin-2-yl)-2H-pyrazole-3-carboxylic acid], the chromatographic logP worked out at 2.86.

With `COC(=O)c1cc(Cn2nc(C(F)(F)F)cc2C(F)(F)F)nn1-c1ncccc1Cl` [Example 4, Methyl 5-(3,5-bistrifluoromethylpyrazol-1-ylmethyl)-2-(3-chloropyridin-2-yl)-2H-pyrazole-3-carboxylate], the chromatographic logP came to 3.71.

In the case of `COC(=O)c1cc(COS(C)(=O)=O)nn1-c1ncccc1Cl` [Example 5, Methyl 2-(3-chloropyridin-2-yl)-5-methanesulphonyloxymethyl-2H-pyrazole-3-carboxylate], the chromatographic logP was 1.55.

On to `COC(=O)c1cc(CO)nn1-c1ncccc1Cl` [Example 6, Methyl 2-(3-chloropyridin-2-yl)-5-hydroxymethyl-2H-pyrazole-3-carboxylate], for which the chromatographic logP is 1.26.

Consider `COC(=O)c1cc(C(=O)OC)n(-c2ncccc2Cl)n1` [Example 7, Dimethyl 1-(3-chloropyridin-2-yl)-1H-pyrazole-3,5-dicarboxylate], for which the chromatographic logP came to 1.97.

A word on the logP: it is the decadic logarithm of the partition coefficient of the neutral form, usually between octanol and water. Lower therefore signals lower lipophilicity.
